# Measurements: US20250152592A1, “PHARMACEUTICAL COMPOSITION COMPRISING ALLOPURINOL, FEBUXOSTAT OR PHARMACEUTICALLY ACCEPTABLE SALT THEREOF FOR PREVENTION OR TREATMENT OF CHRONIC KIDNEY DISEASE IN SUBJECT HAVING HIGH SERUM URIC ACID CONCENTRATION” (Indream Healthcare Inc., priority 2022, published 2025)
# Tested on: patients with gout and a history of major cardiovascular diseases
# Test: odds ratio for risk of developing or worsening chronic kidney disease, serum uric acid at or above 6 vs below 6
# Assay type: in vivo, human
# Protocol: In order to confirm the effect of allopurinol and febuxostat on the kidney disease, the data obtained in the clinical trial described above was analyzed.
# The patients were classified into patient groups by specific biomarkers such as blood glucose level, blood pressure, and kidney disease steps, and then risks of developing or worsening the kidney disease in patients who had the serum uric acid concentration decreased to less than 6 and patients who maintained the serum uric acid concentration at or above 6 were confirmed using odds ratios (OR) after the administration of allopurinol and febuxostat, and the results are shown in Tables 1 to 3.
# Risks of developing the kidney disease of the patients who had the serum uric acid concentration decreased to less than 6 and the patients who maintained the serum uric acid concentration at or above 6 by administering allopurinol were confirmed using the odds ratios, and the results are shown in the following Table 1.
# In Table 6, the risks of developing the kidney disease of the patients who had the serum uric acid concentration decreased to less than 6 and the patients who maintained the serum uric acid concentration at or above 6 by administering febuxostat are confirmed using the odds ratios.
# In Table 12, the risks of developing the kidney disease of the patients who had the serum uric acid concentration decreased to less than 6 and the patients who maintained the serum uric acid concentration at or above 6 were confirmed using the odds ratio, in both patient groups to which allopurinol or febuxostat was administered.
# [1] = Table 12, both administration groups
Compound,"prevention or treatment of chronic kidney disease when serum uric acid maintained below 6 (Table 12, blood glucose ≥126 mg/dl, DBP ≤80 mm/Hg, or SBP ≤130 mm/Hg)",prevention or treatment of chronic kidney disease when serum uric acid maintained below 6 [1],"risk of developing or worsening the chronic kidney disease, serum uric acid at or above 6 vs below 6 (odds ratio) (allopurinol, blood glucose level of 126 mg/dl or less)","risk of developing or worsening the chronic kidney disease, serum uric acid at or above 6 vs below 6 (odds ratio) (allopurinol, blood glucose level of 126 mg/dl or more)","risk of developing or worsening the kidney disease, serum uric acid at or above 6 vs below 6 (odds ratio) (allopurinol, diastolic blood pressure of 80 mm/Hg or higher)","risk of developing or worsening the chronic kidney disease, serum uric acid at or above 6 vs below 6 (odds ratio) (allopurinol, diastolic blood pressure of 80 mm/Hg or lower)","risk of developing or worsening the chronic kidney disease, serum uric acid at 6 or more vs below 6 (odds ratio) (allopurinol, having congestive cardiac failure)","risk of developing or worsening the chronic kidney disease, serum uric acid at 6 or more vs below 6 (odds ratio) (allopurinol, no congestive cardiac failure)","risk of developing or worsening the chronic kidney disease, serum uric acid at or above 6 vs below 6 (odds ratio) (allopurinol, systolic blood pressure of 130 mm/Hg or higher)","risk of developing or worsening the chronic kidney disease, serum uric acid at or above 6 vs below 6 (odds ratio) (allopurinol, systolic blood pressure of 130 mm/Hg or lower)","prevention or treatment of chronic kidney disease when serum uric acid maintained below 6 (Table 6, blood glucose ≥126 mg/dl, DBP ≤80 mm/Hg, or SBP ≤130 mm/Hg)","prevention or treatment of chronic kidney disease when serum uric acid maintained below 6 (Table 6, serum uric acid of 8 mg/dL or more or gout lasting for 10 years or more)"
Oc1ncnc2[nH]ncc12 [allopurinol],effectively prevented or treated,effectively prevented or treated,about 1.34 times,about 2.53 times,about 1.35 times,about 2.04 times,about 1.21 times,about 1.84 times,about 1.54 times,about 1.93 times,–,–
Cc1nc(-c2ccc(OCC(C)C)c(C#N)c2)sc1C(=O)O [febuxostat],–,effectively prevented or treated,–,–,–,–,–,–,–,–,effectively prevented or treated,effectively prevented or treated
